Assay results as given in ChEMBL document CHEMBL5149992, “Discovery, Optimization, and Evaluation of Quinazolinone Derivatives with Novel Linkers as Orally Efficacious Phosphoinositide-3-Kinase Delta Inhibitors for Treatment of Inflammatory Diseases” (J Med Chem, 2021).
pIC50: −log10 of the molar value. Each block holds one molecule with its values, some of them ahead of it. Activity calls are given as the source filed them. No cut-off for these calls is given here.

Assays:
Mus musculus [1] = assay: Antiarthritic activity in collagen-induced rheumatoid arthritis DBA1/J mouse model assessed as reduction in disease severity at 20 mg/kg, po qd measured once daily for 24 to 27 days; assay type: functional, organism-based; conditions: time 24-27 day
[2] = target: Phosphatidylinositol 4,5-bisphosphate 3-kinase catalytic subunit gamma isoform (Mus musculus, UniProt Q9JHG7); assay: Inhibition of PI3Kgamma in c5a-stimulated mouse RAW264.7 cells assessed as reduction in AKT phosphorylation at S473 residue incubated for 30 mins; assay type: cell-based
[3] = target: T1, Phosphatidylinositol 4,5-bisphosphate 3-kinase catalytic subunit delta isoform (Homo sapiens) (UniProt O00329); assay: Inhibition of PI3Kdelta (unknown origin) at 0.1 uM relative to control
T1 sequence (whole entry): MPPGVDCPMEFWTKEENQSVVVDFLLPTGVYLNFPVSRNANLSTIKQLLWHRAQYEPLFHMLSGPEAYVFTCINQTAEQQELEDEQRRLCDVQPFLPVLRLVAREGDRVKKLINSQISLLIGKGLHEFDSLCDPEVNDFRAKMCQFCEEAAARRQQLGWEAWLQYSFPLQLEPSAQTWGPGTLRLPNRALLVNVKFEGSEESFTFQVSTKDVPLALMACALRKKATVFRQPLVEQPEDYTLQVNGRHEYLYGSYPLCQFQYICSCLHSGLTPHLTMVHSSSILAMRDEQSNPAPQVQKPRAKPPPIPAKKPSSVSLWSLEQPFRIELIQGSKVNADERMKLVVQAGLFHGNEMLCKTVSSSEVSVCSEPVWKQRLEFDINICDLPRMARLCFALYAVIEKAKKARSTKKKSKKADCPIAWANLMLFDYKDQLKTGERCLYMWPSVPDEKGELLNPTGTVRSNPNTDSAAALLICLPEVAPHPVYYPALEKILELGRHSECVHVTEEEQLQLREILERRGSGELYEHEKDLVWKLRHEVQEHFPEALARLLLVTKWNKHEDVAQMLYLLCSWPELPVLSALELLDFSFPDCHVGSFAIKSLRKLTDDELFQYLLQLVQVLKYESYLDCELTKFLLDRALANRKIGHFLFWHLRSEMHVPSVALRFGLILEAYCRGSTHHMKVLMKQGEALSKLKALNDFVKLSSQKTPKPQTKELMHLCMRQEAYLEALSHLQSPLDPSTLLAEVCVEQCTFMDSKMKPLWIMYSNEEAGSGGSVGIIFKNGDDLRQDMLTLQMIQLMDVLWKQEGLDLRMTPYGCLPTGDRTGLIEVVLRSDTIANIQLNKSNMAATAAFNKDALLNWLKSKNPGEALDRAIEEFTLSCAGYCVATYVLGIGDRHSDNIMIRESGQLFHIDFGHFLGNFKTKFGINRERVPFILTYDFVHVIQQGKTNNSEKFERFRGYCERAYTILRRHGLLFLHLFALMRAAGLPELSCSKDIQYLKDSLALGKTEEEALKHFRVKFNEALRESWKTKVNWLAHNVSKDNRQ

[4] = target: T2, Phosphatidylinositol 4,5-bisphosphate 3-kinase catalytic subunit beta isoform (Homo sapiens, UniProt P42338); assay: Inhibition of PI3Kbeta (unknown origin)
[5] = target: T1, Phosphatidylinositol 4,5-bisphosphate 3-kinase catalytic subunit delta isoform (Homo sapiens); assay: Inhibition of PI3Kdelta (unknown origin) at 0.01 uM using phosphatidylinositol as substrate incubated for 30 mins in presence of ATP by HTRF based assay relative to control
[6] = target: T3, Phosphatidylinositol 4,5-bisphosphate 3-kinase catalytic subunit delta isoform (Homo sapiens, UniProt O00329); assay: Inhibition of PI3Kdelta (unknown origin)
T3 sequence (O00329 whole entry): T1 sequence (whole entry)

[7] = human, microsomes, 10 µM
[8] = target: T1, Phosphatidylinositol 4,5-bisphosphate 3-kinase catalytic subunit delta isoform (Homo sapiens); assay: Inhibition of PI3Kdelta (unknown origin) at 0.1 uM using phosphatidylinositol as substrate incubated for 30 mins in presence of ATP by HTRF based assay relative to control
[9] = Toxicity in mouse at 100 mg/kg, po; assay type: organism-based; conditions: in vivo
[10] = target: T4, Phosphatidylinositol 4,5-bisphosphate 3-kinase catalytic subunit alpha isoform (Homo sapiens, UniProt P42336); assay: Inhibition of PI3Kalpha (unknown origin)
in vitro = conditions: human, liver microsomes
[11] = target: Phosphatidylinositol 4,5-bisphosphate 3-kinase catalytic subunit gamma isoform (Homo sapiens, UniProt P48736); assay: Inhibition of PI3Kgamma (unknown origin)
[12] = MRT in Sprague-Dawley rat at 5 mg/kg, po incubated for 5 to 24 hrs by LC-MS/MS analysis; assay type: ADME, organism-based; conditions: in vivo, time 5-24 hrs
Mus musculus [13] = assay: Antiarthritic activity in collagen-induced rheumatoid arthritis po dosed DBA1/J mouse model assessed as reduction in disease severity measured once daily for 24 to 27 days; assay type: functional, organism-based; conditions: dose 5-20 mg/kg, time 24-27 day, DDE = dose-dependent effect
H9c2 = assay: Cytotoxicity against rat H9c2 cells assessed as reduction in cell viability incubated for 72 hrs by CCK-8 assay; assay type: toxicity, cell-based; conditions: h9c2, 72 h
Mus musculus [14] = assay: Antiarthritic activity against collagen-induced arthritis DBA1/J mouse model assessed as paw swelling of forelimb at 5 to 20 mg/kg, po measured on day 27; assay type: functional, organism-based; conditions: dose 5-20 mg/kg, time 27.0 day
Mus musculus [15] = assay: Antiarthritic activity against collagen-induced arthritis DBA1/J mouse model assessed as signs of inflammation at 20 mg/kg, po measured after 24 hrs by H and E staining based analysis; assay type: functional, organism-based
[16] = target: T3, Phosphatidylinositol 4,5-bisphosphate 3-kinase catalytic subunit delta isoform; assay: Inhibition of PI3Kdelta in anti-IgM-stimulated human whole blood B cell degranulation incubated for 60 mins by flow cytometry; assay type: tissue-based
[17] = Oral bioavailability Sprague-Dawley rat at 5 mg/kg incubated for 5 to 24 hrs by LC-MS/MS analysis; assay type: ADME, organism-based; conditions: in vivo, time 5-24 hrs
[18] = Elimination half life in Sprague-Dawley rat at 5 mg/kg, po incubated for 5 to 24 hrs by LC-MS/MS analysis; assay type: ADME, organism-based; conditions: in vivo, time 5-24 hrs, read-out: beta t1/2 (converted)
[19] = MRT in Sprague-Dawley rat at 5 mg/kg, iv incubated for 5 to 24 hrs by LC-MS/MS analysis; assay type: ADME, organism-based; conditions: in vivo, time 5-24 hrs
L02 = assay: Cytotoxicity against human L02 cells assessed as reduction in cell viability incubated for 72 hrs by CCK-8 assay; assay type: toxicity, cell-based; conditions: l02, 72 h
HEK293 = assay: Cytotoxicity against HEK293 cells assessed as reduction in cell viability incubated for 72 hrs by CCK-8 assay; assay type: toxicity, cell-based; conditions: human, hek293, 72 h
[20] = Elimination half life in Sprague-Dawley rat at 5 mg/kg, iv incubated for 5 to 24 hrs by LC-MS/MS analysis; assay type: ADME, organism-based; conditions: in vivo, time 5-24 hrs, read-out: beta t1/2 (converted)
Mus musculus [21] = assay: Antiarthritic activity against collagen-induced arthritis DBA1/J mouse model assessed as paw swelling of hindlimb at 5 to 20 mg/kg, po measured on day 27; assay type: functional, organism-based; conditions: dose 5-20 mg/kg, time 27.0 day
[22] = target: T2, Phosphatidylinositol 4,5-bisphosphate 3-kinase catalytic subunit beta isoform; assay: Inhibition of PI3Kbeta in human 786-0 cells assessed as reduction in AKT phosphorylation at S473 residue incubated for 30 mins; assay type: cell-based
[23] = AUC in Sprague-Dawley rat at 5 mg/kg, iv incubated for 5 to 24 hrs by LC-MS/MS analysis; assay type: ADME, organism-based; set-up: time 5-24 hrs, dose 5 mg/kg, route iv; conditions: in vivo
[24] = Tmax in Sprague-Dawley rat at 5 mg/kg, po incubated for 5 to 24 hrs by LC-MS/MS analysis; assay type: ADME, organism-based; conditions: in vivo, time 5-24 hrs
[25] = Volume of distribution at steady state in Sprague-Dawley rat at 5 mg/kg, po incubated for 5 to 24 hrs by LC-MS/MS analysis; assay type: ADME, organism-based; conditions: in vivo, time 5-24 hrs
[26] = Volume of distribution at steady state in Sprague-Dawley rat at 5 mg/kg, iv incubated for 5 to 24 hrs by LC-MS/MS analysis; assay type: ADME, organism-based; conditions: in vivo, time 5-24 hrs, read-out: Vdss
[27] = target: T4, Phosphatidylinositol 4,5-bisphosphate 3-kinase catalytic subunit alpha isoform; assay: Inhibition of PI3Kalpha in human SK-OV-3 cells assessed as reduction in AKT phosphorylation at S473 residue incubated for 30 mins; assay type: cell-based
Mus musculus [28] = assay: Antiarthritic activity against collagen-induced arthritis DBA1/J mouse model assessed as bone erosion at 20 mg/kg, po measured after 24 hrs by H and E staining based analysis; assay type: functional, organism-based
Mus musculus [29] = assay: Antiarthritic activity against collagen-induced arthritis DBA1/J mouse model assessed as destruction of cartilage at 20 mg/kg, po measured after 24 hrs by Safranin-O staining based microscopic analysis; assay type: functional, organism-based
[30] = target: T3, Phosphatidylinositol 4,5-bisphosphate 3-kinase catalytic subunit delta isoform; assay: Inhibition of PI3Kdelta in anti-IgM-stimulated human Raji cells assessed as reduction in AKT phosphorylation at S473 residue incubated for 30 mins; assay type: cell-based
[31] = Tmax in Sprague-Dawley rat at 5 mg/kg, iv incubated for 5 to 24 hrs by LC-MS/MS analysis; assay type: ADME, organism-based; conditions: in vivo, time 5-24 hrs
L929 = assay: Cytotoxicity against mouse L929 cells assessed as reduction in cell viability incubated for 72 hrs by CCK-8 assay; assay type: toxicity, cell-based; conditions: l929, 72 h
[32] = AUC in Sprague-Dawley rat at 5 mg/kg, po incubated for 5 to 24 hrs by LC-MS/MS analysis; assay type: ADME, organism-based; set-up: dose 5 mg/kg, time upper 24 hrs, time lower 5 hrs, route po; conditions: in vivo

T4 sequence (P42336 whole entry, canonical isoform): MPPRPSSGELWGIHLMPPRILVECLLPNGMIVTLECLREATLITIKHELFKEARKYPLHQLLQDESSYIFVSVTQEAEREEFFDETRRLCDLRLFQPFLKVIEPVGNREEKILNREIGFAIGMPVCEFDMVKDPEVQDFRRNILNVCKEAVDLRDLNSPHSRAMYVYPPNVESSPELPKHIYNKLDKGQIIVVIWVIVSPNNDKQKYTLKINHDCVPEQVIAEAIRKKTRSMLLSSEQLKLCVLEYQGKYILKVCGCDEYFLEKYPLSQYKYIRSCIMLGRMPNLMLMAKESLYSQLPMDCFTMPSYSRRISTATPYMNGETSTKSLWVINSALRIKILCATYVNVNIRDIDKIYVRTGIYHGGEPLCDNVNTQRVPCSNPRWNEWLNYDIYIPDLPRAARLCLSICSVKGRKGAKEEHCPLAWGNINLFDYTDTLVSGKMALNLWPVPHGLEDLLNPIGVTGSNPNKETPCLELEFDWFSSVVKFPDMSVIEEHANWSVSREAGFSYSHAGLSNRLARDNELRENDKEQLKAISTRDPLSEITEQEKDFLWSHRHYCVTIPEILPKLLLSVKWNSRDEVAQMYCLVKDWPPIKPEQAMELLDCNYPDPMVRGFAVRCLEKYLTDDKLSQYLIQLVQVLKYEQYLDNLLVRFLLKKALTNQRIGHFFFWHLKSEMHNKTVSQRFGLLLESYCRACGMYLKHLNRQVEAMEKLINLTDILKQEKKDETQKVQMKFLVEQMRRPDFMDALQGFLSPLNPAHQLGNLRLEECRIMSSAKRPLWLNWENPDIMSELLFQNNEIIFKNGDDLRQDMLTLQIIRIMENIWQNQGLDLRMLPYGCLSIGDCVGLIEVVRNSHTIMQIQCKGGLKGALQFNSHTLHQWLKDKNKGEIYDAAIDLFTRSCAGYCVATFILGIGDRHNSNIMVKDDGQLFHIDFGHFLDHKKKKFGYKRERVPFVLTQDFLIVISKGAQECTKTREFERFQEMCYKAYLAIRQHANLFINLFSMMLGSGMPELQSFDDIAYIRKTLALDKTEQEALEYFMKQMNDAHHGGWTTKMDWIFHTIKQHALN
T2 sequence (P42338 whole entry, canonical isoform): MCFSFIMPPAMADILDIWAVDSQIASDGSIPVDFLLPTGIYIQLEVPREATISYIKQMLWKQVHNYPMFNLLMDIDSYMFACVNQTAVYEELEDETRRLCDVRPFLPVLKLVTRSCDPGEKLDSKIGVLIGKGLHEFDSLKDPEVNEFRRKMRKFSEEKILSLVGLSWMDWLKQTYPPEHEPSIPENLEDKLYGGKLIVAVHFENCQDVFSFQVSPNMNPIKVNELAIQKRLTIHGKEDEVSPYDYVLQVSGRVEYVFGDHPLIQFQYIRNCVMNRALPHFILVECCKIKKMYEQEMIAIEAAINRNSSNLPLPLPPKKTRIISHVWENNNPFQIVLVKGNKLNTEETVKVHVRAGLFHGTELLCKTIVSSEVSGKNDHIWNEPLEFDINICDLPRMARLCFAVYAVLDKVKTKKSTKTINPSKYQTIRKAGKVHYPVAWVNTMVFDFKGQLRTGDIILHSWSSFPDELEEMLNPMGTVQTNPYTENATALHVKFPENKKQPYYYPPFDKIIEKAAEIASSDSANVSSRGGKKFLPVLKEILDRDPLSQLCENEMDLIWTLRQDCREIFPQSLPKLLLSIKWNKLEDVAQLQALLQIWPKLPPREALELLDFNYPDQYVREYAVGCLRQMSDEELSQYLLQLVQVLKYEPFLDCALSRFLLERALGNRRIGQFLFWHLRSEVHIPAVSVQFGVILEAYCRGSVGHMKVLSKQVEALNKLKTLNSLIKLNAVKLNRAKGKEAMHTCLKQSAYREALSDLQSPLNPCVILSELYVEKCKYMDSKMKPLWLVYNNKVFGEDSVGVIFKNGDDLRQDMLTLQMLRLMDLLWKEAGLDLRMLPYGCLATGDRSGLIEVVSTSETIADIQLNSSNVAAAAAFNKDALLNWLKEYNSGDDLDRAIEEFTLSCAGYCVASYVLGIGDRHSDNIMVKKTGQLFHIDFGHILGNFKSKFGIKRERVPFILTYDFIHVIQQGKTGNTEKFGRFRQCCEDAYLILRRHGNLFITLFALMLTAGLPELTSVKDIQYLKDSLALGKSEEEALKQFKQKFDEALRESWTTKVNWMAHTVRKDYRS
Chain of Phosphatidylinositol 4,5-bisphosphate 3-kinase catalytic subunit gamma isoform (Homo sapiens, UniProt P48736) (P48736 whole entry, canonical isoform): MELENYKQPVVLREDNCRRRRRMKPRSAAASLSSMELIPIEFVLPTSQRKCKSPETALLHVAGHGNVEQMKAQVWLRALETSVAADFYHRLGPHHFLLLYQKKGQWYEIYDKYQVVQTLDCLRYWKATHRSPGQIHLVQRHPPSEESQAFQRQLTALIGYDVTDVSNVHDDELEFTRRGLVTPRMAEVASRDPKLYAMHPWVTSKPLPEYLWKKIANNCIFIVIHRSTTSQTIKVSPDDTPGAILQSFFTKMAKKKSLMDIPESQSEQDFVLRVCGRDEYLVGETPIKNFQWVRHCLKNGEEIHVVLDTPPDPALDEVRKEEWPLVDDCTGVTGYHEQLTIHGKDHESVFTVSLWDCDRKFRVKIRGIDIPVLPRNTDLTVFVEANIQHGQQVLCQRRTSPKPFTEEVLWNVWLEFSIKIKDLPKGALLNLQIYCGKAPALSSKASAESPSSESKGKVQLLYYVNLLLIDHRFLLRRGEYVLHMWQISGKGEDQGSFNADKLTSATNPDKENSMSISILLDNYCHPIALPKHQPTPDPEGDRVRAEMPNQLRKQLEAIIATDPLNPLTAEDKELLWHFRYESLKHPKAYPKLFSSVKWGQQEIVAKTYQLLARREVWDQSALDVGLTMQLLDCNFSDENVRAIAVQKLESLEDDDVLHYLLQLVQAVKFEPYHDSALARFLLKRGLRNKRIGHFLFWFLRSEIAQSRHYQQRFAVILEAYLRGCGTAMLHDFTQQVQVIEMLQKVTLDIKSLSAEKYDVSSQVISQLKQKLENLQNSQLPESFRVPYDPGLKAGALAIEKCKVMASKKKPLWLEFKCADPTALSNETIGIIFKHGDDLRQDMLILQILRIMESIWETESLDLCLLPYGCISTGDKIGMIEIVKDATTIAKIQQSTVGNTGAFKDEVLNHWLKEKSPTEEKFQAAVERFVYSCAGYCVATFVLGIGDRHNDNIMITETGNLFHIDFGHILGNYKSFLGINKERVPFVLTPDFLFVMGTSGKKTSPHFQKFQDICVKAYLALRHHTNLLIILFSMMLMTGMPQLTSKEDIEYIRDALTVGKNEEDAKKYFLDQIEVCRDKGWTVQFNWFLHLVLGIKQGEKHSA
Chain of Phosphatidylinositol 4,5-bisphosphate 3-kinase catalytic subunit gamma isoform (Mus musculus, UniProt Q9JHG7) (Q9JHG7 whole entry, canonical isoform): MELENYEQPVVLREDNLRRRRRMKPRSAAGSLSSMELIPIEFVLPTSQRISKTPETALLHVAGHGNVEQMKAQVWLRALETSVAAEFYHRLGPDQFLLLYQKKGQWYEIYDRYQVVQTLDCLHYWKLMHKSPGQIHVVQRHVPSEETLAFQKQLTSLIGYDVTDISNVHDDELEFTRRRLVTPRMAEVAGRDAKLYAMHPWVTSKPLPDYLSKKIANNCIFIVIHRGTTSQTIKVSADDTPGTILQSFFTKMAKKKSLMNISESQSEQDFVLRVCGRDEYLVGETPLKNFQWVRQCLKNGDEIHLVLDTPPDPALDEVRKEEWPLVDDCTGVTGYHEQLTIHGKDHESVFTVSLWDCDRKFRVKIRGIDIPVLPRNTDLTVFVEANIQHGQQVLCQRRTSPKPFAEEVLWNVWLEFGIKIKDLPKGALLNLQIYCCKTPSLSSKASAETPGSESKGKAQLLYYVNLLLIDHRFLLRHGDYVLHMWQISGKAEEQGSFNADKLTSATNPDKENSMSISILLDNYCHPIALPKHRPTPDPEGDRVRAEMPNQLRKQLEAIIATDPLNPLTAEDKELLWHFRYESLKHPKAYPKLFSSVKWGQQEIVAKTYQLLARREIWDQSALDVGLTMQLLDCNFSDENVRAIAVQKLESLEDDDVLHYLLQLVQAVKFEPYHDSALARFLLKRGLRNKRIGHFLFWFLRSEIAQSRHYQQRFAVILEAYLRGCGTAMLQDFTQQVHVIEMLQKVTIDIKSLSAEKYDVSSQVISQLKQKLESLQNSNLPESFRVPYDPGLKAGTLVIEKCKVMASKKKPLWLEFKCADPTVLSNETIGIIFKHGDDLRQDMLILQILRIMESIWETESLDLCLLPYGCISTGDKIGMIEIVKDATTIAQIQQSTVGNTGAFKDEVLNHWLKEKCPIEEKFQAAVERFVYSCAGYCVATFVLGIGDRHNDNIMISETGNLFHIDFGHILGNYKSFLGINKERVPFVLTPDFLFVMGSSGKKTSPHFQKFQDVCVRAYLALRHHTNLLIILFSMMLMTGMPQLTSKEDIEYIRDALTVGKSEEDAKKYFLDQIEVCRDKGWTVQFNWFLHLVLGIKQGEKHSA

Structure (SMILES): N#Cc1c(N)ncnc1N1[C@H](c2nc3cccc(Cl)c3c(=O)n2-c2cccc(OC(F)(F)F)c2)C[C@@H]2CCCC[C@@H]21
inhibition [3]: 5%

Structure (SMILES): C[C@H]1CC[C@@H](c2nc3cccc(Cl)c3c(=O)n2-c2cccc(F)c2)N1c1ncnc2[nH]cnc12
MRT [12]: 5.96 h
Activity (Mus musculus [13]): Dde
pIC50 [2]: 6.24
Activity (H9c2): Non-Toxic
Activity (Mus musculus [14]): Active
Activity (Mus musculus [15]): Active
pIC50 [4]: 6.43
pIC50 [16]: 7.00
F [17]: 89.9%
pIC50 [6]: 7.85
half-life [18]: 2.06 h
MRT [19]: 2.53 h
CLH [7]: 5.2 mL/min/g
Activity (L02): Non-Toxic
Activity (HEK293): Non-Toxic
half-life [20]: 2 h
Activity (Mus musculus [21]): Active
pIC50 [22]: 6.03
AUC [23]: 2110.52 ng·h/mL
Tmax [24]: 4.67 h
Vdss [25]: 9.1 L/kg
Vd [26]: 7.16 L/kg
pIC50 [27]: 5.36
pIC50 [10]: 5.35
Activity (Mus musculus [28]): Active
Activity (Mus musculus [29]): Active
pIC50 [30]: 7.61
Tmax [31]: 4.8 min
half-life at 60 h, 10 µM (in vitro): 4.44 h
Activity (L929): Non-Toxic
pIC50 [11]: 6.57
AUC [32]: 4897.74 ng·h/mL

Structure (SMILES): N#Cc1c(N)ncnc1N1[C@H](c2nc3cccc(Cl)c3c(=O)n2-c2ccccc2)C[C@@H]2CCCC[C@@H]21
pIC50 [4]: < 6.00
inhibition [5]: 10%
pIC50 [6]: 7.05
CLH [7]: 19.8 mL/min/g
inhibition [8]: 43%
Activity [9]: Non-Toxic
pIC50 [10]: < 6.00
half-life at 60 h, 10 µM (in vitro): 1.17 h
pIC50 [11]: < 6.00

The next lines start with results.

pIC50 [2]: 5.89
Structure (SMILES): CC[C@H](Nc1ncnc2[nH]cnc12)c1nc2cccc(F)c2c(=O)n1-c1ccccc1 [IDELALISIB]
Activity (Mus musculus [1]): Active

pIC50 [4]: < 6.00
inhibition [5]: 15%
pIC50 [6]: 7.48
CLH [7]: 8.2 mL/min/g
inhibition [8]: 60%
pIC50 [10]: < 6.00
half-life at 60 h, 10 µM (in vitro): 2.82 h
pIC50 [11]: < 6.00
Structure (SMILES): N#Cc1c(N)ncnc1N1CC(F)(F)C[C@H]1c1nc2cccc(Cl)c2c(=O)n1-c1ccccc1
Activity [9]: Toxic
